Where “and” joins values, the source holds several entries; their conditions need not be identical. Equal values may be shown once.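 Exposure lasted 48 hours, with cells grown in 96-well plates and compounds tested at five concentrations. GI50: concentration for 50% inhibition of growth. TGI marks complete inhibition of growth.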
Legend:
Experiment in all cases: DTP human tumour cell line panel, 48 h
[1] = test system: A498 renal
[2] = test system: PC-3 prostate
[3] = test system: HL-60(TB) leukemia
[4] = test system: SK-OV-3 ovarian
[5] = test system: U251 CNS
[6] = test system: OVCAR-5 ovarian
[7] = test system: UACC-257 melanoma
[8] = test system: HCT-15 colon
[9] = test system: MOLT-4 leukemia
[10] = test system: A549 NSCLC

SMILES: CN1CCN(CCCNc2nc3ccc(Oc4ccc(NC(=O)Nc5cc(C(F)(F)F)ccc5F)cc4)cc3[nH]2)CC1
- GI50 [1]: 2.93 µM
- TGI [1]: > 18.9 µM
- GI50 [2]: 4.82 µM
- TGI [2]: 10.6 µM
- GI50 [3]: 5.2 µM
- TGI [3]: 10.3 µM
- GI50 [4]: 4.36 µM
- TGI [4]: 10.3 µM
- GI50 [5]: 3.86 µM
- TGI [5]: 7.38 µM
- GI50 [6]: 6.75 µM
- TGI [6]: > 20.7 µM
- GI50 [7]: 4.02 µM
- TGI [7]: 7.93 µM
- GI50 [8]: > 25 µM
- TGI [8]: > 25 µM
- GI50 [9]: 4.83 µM
- TGI [9]: 9.89 µM
- GI50 [10]: 4.31 µM
- TGI [10]: 8.08 µM

SMILES: CCCCCCCCCCCCCCCC(=O)OCC(C[As](=O)(O)O)OC(=O)CCCCCCCCCCCCCCC (stereo not drawn)
- TGI [1]: > 100 µM
- TGI [2]: > 100 µM
- TGI [3]: > 100 µM
- TGI [4]: > 100 µM
- TGI [5]: > 100 µM
- TGI [6]: > 100 µM
- TGI [7]: > 100 µM
- TGI [8]: > 100 µM
- TGI [9]: > 100 µM
- TGI [10]: > 100 µM

SMILES: O=C1/C(=C(/c2ccccc2)N2CCOCC2)Cc2ccccc21
- GI50 [1]: 5.19 µM
- TGI [1]: 11.4 µM
- GI50 [2]: 1.64 µM
- TGI [2]: 6.15 µM
- GI50 [3]: 0.235 µM
- TGI [3]: 0.485 µM
- GI50 [4]: 23.1 µM
- TGI [4]: 72.6 µM
- GI50 [5]: 1.65 µM
- TGI [5]: 4.57 µM
- GI50 [6]: 3.26 µM
- TGI [6]: 9.57 µM
- GI50 [7]: 2.21 µM
- TGI [7]: 6.46 µM
- GI50 [8]: 1.55 µM
- TGI [8]: 5.02 µM
- GI50 [9]: > 100 µM
- TGI [9]: > 100 µM
- GI50 [10]: 2.79 µM
- TGI [10]: 8.35 µM

SMILES: N#Cc1cc(-c2cc3ccccc3o2)oc1N
- GI50 [1]: 1.76 µM
- TGI [1]: 4.68 µM
- GI50 [2]: 2.73 µM
- TGI [2]: 6.85 µM
- GI50 [3]: 3.85 µM
- TGI [3]: > 100 µM
- GI50 [4]: 2.38 µM
- TGI [4]: 7.15 µM
- GI50 [5]: 3.15 µM
- TGI [5]: 14.7 µM
- GI50 [6]: 4.34 µM
- TGI [6]: 30.6 µM
- GI50 [7]: 3.8 µM
- TGI [7]: 74.1 µM
- GI50 [8]: 3.35 µM
- TGI [8]: 13 µM
- GI50 [9]: 1.94 µM
- TGI [9]: 6.64 µM
- GI50 [10]: 3.7 µM
- TGI [10]: > 100 µM

SMILES: CC1(C)C(=O)/C(=C\c2cccnc2)C[C@]2(C)[C@H]3CC[C@@H]4[C@H]5[C@H](C(=O)/C=C/c6cccnc6)CC[C@]5(C(=O)O)CC[C@@]4(C)[C@]3(C)CC[C@@H]12
- GI50 [1]: 1.92 µM
- TGI [1]: 3.44 µM
- GI50 [2]: 2.41 µM
- TGI [2]: 8.58 µM
- GI50 [3]: 1.95 µM
- TGI [3]: 5.27 µM
- GI50 [4]: 3.82 µM
- TGI [4]: 14.5 µM
- GI50 [5]: 1.74 µM
- TGI [5]: 3.26 µM
- GI50 [6]: 2.44 µM
- TGI [6]: 4.88 µM
- GI50 [7]: 1.88 µM
- TGI [7]: 4.25 µM
- GI50 [8]: 1.76 µM
- TGI [8]: 4.54 µM
- GI50 [9]: 2.22 µM
- TGI [9]: 11.5 µM
- GI50 [10]: 2.14 µM
- TGI [10]: 5.11 µM

SMILES: COC(=O)Nc1nc2ccc(C3(c4ccc(F)cc4)OCCO3)cc2[nH]1
- GI50 [1]: 0.133 µM
- TGI [1]: 2.87 µM
- GI50 [2]: 0.341 µM
- TGI [2]: > 100 µM
- GI50 [3]: 0.242 µM
- TGI [3]: 0.765 µM
- GI50 [4]: 0.587 µM
- TGI [4]: > 100 µM
- GI50 [5]: 0.398 µM
- TGI [5]: > 100 µM
- GI50 [6]: 0.614 µM
- TGI [6]: > 100 µM
- GI50 [7]: 1.28 µM
- TGI [7]: > 100 µM
- GI50 [8]: 0.178 µM
- TGI [8]: > 100 µM
- GI50 [9]: 0.573 µM
- TGI [9]: > 100 µM
- GI50 [10]: 0.417 µM
- TGI [10]: > 100 µM

SMILES: CC1=CC(=O)C=CC1=O
- GI50 [1]: 30.6 µM and 51.5 µM
- TGI [1]: 96 µM and 144 µM
- GI50 [2]: 15.7 µM
- TGI [2]: 39.4 µM
- GI50 [3]: 2.37 µM and 3.51 µM
- GI50 [4]: 37.5 µM and 25.5 µM
- TGI [4]: 93.8 µM
- GI50 [5]: 57.4 µM and 15.4 µM
- TGI [5]: 28.9 µM
- GI50 [6]: 21.4 µM
- TGI [6]: 39.5 µM
- GI50 [7]: 35.9 µM and 17.4 µM
- TGI [7]: 33.9 µM
- GI50 [8]: 19.1 µM and 13.2 µM
- TGI [8]: 38 µM and 29 µM
- GI50 [9]: 3.29 µM and 3.22 µM
- GI50 [10]: 79.4 µM and 24.9 µM
- TGI [10]: 66.8 µM

SMILES: CCc1nc(N)nc(N)c1-c1ccc(NC)c([N+](=O)[O-])c1
- TGI [1]: > 87 µM
- TGI [2]: > 100 µM
- TGI [3]: > 51.8 µM
- TGI [4]: > 100 µM
- TGI [5]: > 100 µM
- TGI [6]: > 100 µM
- TGI [7]: > 100 µM
- TGI [8]: > 100 µM
- TGI [9]: > 68.2 µM
- TGI [10]: > 100 µM

SMILES: CCNCCNc1cc(-c2ccc(C(F)(F)F)cc2)c(C#N)c2nc3ccccc3n12
- GI50 [1]: 1.86 µM
- TGI [1]: 3.33 µM
- GI50 [2]: 1.54 µM
- TGI [2]: 2.95 µM
- GI50 [3]: 0.203 µM
- TGI [3]: 0.468 µM
- GI50 [4]: 1.66 µM
- TGI [4]: 3.17 µM
- GI50 [5]: 0.466 µM
- TGI [5]: 1.61 µM
- GI50 [6]: 1.94 µM
- TGI [6]: 3.52 µM
- GI50 [7]: 2.18 µM
- TGI [7]: 3.83 µM
- GI50 [8]: 0.612 µM
- TGI [8]: 1.9 µM
- GI50 [9]: 1.31 µM
- TGI [9]: 3.29 µM
- GI50 [10]: 1.75 µM
- TGI [10]: 3.41 µM

SMILES: Cc1cc2ncnn2cc1Nc1ncc2c(n1)n(C1CCOCC1)c(=O)n2C
- GI50 [1]: 0.319 µM
- TGI [1]: 2.22 µM
- GI50 [2]: 2.73 µM
- TGI [2]: > 100 µM
- GI50 [3]: 23.3 µM
- TGI [3]: > 100 µM
- GI50 [4]: 2.15 µM
- TGI [4]: 15.2 µM
- GI50 [5]: 14.1 µM
- TGI [5]: > 100 µM
- GI50 [6]: 5.81 µM
- TGI [6]: > 100 µM
- GI50 [7]: 7.52 µM
- TGI [7]: 72.5 µM
- GI50 [8]: 8.23 µM
- TGI [8]: > 100 µM
- GI50 [9]: 6.09 µM
- TGI [9]: 52 µM
- GI50 [10]: 7.22 µM
- TGI [10]: > 100 µM

Source: PubChem BioAssay (NCI)
